Several values for one entry are separate records, joined by “and”; a condition that tells them apart may be missing. Equal values may be shown once.
Key:
Candida albicans [1] = assay: Survival of mice treated with abu-MDP at 96 and 48 hr prior to challenge with Candida albicans (Example 1, Table I); assay type: in vivo; settings: for Survival No. (%) / Survival Time: no MLV, days 4 and 2 before infection; for Survival No. (%): third set of rows (saline control 0%); for Survival Time: third set of rows (saline control 3.6 days)
Experimental: Multilamellar vesicles (MLVs) were formed by drying down egg phosphatidylcholine and brain phosphatidylserine (7:3 molar ratio) on the inside of a flask. Phosphate-buffered saline lacking divalent cations (PBS) was added (1 ml per 20 micromoles phospholipid), and the flask shaken, either by hand or with a mechanical shaker, until the lipid film was dispersed. When N-acetylmuramyl-L-α-aminobutyryl-D-isoglutamine (abu-MDP) was to be encapsulated, it was included in the aqueous solution before addition to the lipid film. The vesicles formed as the result of shaking the aqueous solution which contained MDP derivative were washed to remove unencapsulated MDP derivative, pelleted by centrifugation at 30,000×g for 20-30 min, and then resuspended in PBS. MLV preparations made without MDP derivative were either pelleted and resuspended as described, or were used without further treatment.
(§1) Mice were injected intravenously with liposomes (4 micromoles phospholipid)and also with free abu-MDP (2-4 mg/kg). The abu-MDP was injected at the same time as the liposome injection. Injections were made at 96 and 48 hr prior to challenge with Candida albicans (5×10^6 cells injected intravenously). Control mice were treated with either liposomes only, or abu-MDP only (4 or 60 mg/kg), or abu-MDP (2-4 mg/kg) encapsulated in liposomes, and similarly challenged with Candida albicans. Each treatment group contained 20 mice. All mice were monitored daily for number of survivors. Statistical analysis of survival time was computed using Mann Whitney U probability analysis, and the numbers of survivors were statistically compared using Fisher Exact probability analysis.
P values, calculated for survival time and number of survivors at the time when controls (treated only with MLV or with saline) first reached 100% dead, were all less than 0.03. By comparison, the treatments with the same concentration of abu-MDP alone were ineffective (P≥0.05).

Candida albicans [2] = assay: Survival of mice given a single abu-MDP treatment 72 hr prior to challenge with Candida albicans (Example 2, Table II); assay type: in vivo; settings: one treatment at day 3 before infection
Experimental: as §1
A second experiment was performed by the method described in Example 1, except that the mice were given a single pre-infection treatment at 72 hr prior to challenge, instead of treatments at 96 and 48 hr prior to challenge as in Example 1.

[3] = Radioactivity of 3H-desMDP in liposome fraction and aqueous supernatant after mixing with pre-formed MLVs (Example 3, Table III); assay type: physicochemical
Experimental: MLVs were prepared as described above, hydrating the dried lipid film with PBS. These pre-formed liposomes were then mixed with unencapsulated MDP compound spiked with tritiated N-acetyldesmethylmuramyl-L-alanyl-D-isoglutamine (^3 H-desMDP). The liposome/MDP derivative mixture was washed and pelleted, and the final liposome pellet resuspended in PBS. The radioactivity in the liposome fraction was determined, as well as the radioactivity in the aqueous supernatant from the washing and pelleting steps. […] Thus, MDP compounds are not incorporated into or attached to liposomes in the practice of the invention.

Substance	protective activity against Candida albicans (Candida albicans [1]; abu-MDP alone at the same concentration as used with MLV (P≥0.05))	Survival No. (%) (Candida albicans [1]; free abu-MDP 4 mg/kg)	Survival Time (Candida albicans [1]; free abu-MDP 4 mg/kg)	Survival No. (%) (Candida albicans [1]; free abu-MDP 60 mg/kg)	Survival Time (Candida albicans [1]; free abu-MDP 60 mg/kg)	protective activity against Candida albicans (Candida albicans [1]; free abu-MDP alone raised to 60 mg/kg)	Survival No. (%) (Candida albicans [2]; abu-MDP 4 mg/kg)	Survival Time (Candida albicans [2]; abu-MDP 4 mg/kg)	Survival No. (%) (Candida albicans [2]; free abu-MDP 60 mg/kg)	Survival Time (Candida albicans [2]; free abu-MDP 60 mg/kg)	cpm/0.1 ml ([3]; aqueous fraction (supernatant from washing and pelleting))	% of Total ([3]; aqueous fraction (supernatant))	% of Total ([3]; liposome fraction)	cpm/0.1 ml ([3]; liposome fraction (final pellet resuspended in PBS))
N-acetylmuramyl-L-α-aminobutyryl-D-isoglutamine [abu-MDP]	ineffective	0%	4.4 days	45%	6.9 days	protective activity obtained equivalent to that seen using the lower dose of abu-MDP (2-4 mg/kg) plus MLV	0%	5.2 days	32%	6.4 days	–	–	–	–
tritiated N-acetyldesmethylmuramyl-L-alanyl-D-isoglutamine [^3 H-desMDP]	–	–	–	–	–	–	–	–	–	–	557,610 cpm/0.1 ml and 562,800 cpm/0.1 ml	~100%	0.2%	1,462 cpm/0.1 ml and 1,304 cpm/0.1 ml

— patent US4684625A, “Method for enhancing the anti-infective activity of muramyldipeptide derivatives” (Syntex (U.S.A.) Inc., priority 1985, dated 1987)
